For data set [1] the following is noted: 101.3 kPa, Liquid; for speed of sound: Frequency=3 MHz, Sing-around technique in a fixed-path interferometer; for mass density: Vibrating tube method.
Data set [2] is described as follows: refractive index (Na D-line) (dimensionless). The following applies: 101.3 kPa, Liquid, Standard Abbe refractometry.
Data set [3] can be described thus: xn = mol fraction of the nth substance listed. The following applies: 101.3 kPa, Liquid, x2 = 0; for speed of sound: Frequency=3 MHz, Sing-around technique in a fixed-path interferometer; for mass density: Vibrating tube method.
The nature of data set [4]: refractive index (Na D-line) (dimensionless); xn = mol fraction of the nth substance listed. As to conditions: 101.3 kPa, Liquid, Standard Abbe refractometry, x2 = 0.

SMILES strings stand for the structures. Numbers after ± are expanded uncertainties.

Turning to `CN1CCCC1=O` [N-methylpyrrolidone], the speed of sound in data set [1] (298 K) amounted to 1546 ± 2 m/s; in data set [1] (303 K) it was 1526 ± 2 m/s; in data set [1] (308 K), 1507 ± 2 m/s. The figures for the mass density in data set [1] (298 K), in data set [1] (303 K) and in data set [1] (308 K) were 1026 ± 2 kg/m3, 1022 ± 2 kg/m3 and 1018 ± 2 kg/m3, respectively. The figures for the refractive index in data set [2] (298 K), in data set [2] (303 K) and in data set [2] (308 K) were 1.467 ± 0.002, 1.466 ± 0.002 and 1.464 ± 0.002, respectively.
Turning to `CN1CCCC1=O` [N-methylpyrrolidone] + CCOc1ccccc1, the speed of sound in data set [3] (298 K) is on record as 1546 ± 2 m/s; in data set [3] (303 K) it was 1526 ± 2 m/s; in data set [3] (308 K), 1507 ± 2 m/s. The mass density is 1026 ± 2 kg/m3 in data set [3] (298 K), 1022 ± 2 kg/m3 in data set [3] (303 K) and 1018 ± 2 kg/m3 in data set [3] (308 K). Besides, the refractive index in data set [4] (298 K) came to 1.467 ± 0.002; in data set [4] (303 K), 1.466 ± 0.002; in data set [4] (308 K), 1.464 ± 0.002.
As for `CN(C)C=O` [dimethylformamide], the speed of sound in data set [1] (298 K) came to 1457 ± 2 m/s; in data set [1] (303 K) it was 1437 ± 2 m/s; in data set [1] (308 K), 1420 ± 2 m/s. The values for the mass density in data set [1] (298 K), in data set [1] (303 K) and in data set [1] (308 K) were 944 ± 2 kg/m3, 939 ± 2 kg/m3 and 935 ± 2 kg/m3, respectively. For the same compound, the refractive index in data set [2] (298 K) is 1.429 ± 0.002; in data set [2] (303 K), 1.427 ± 0.002; in data set [2] (308 K), 1.425 ± 0.002.
Turning to `CN(C)C=O` [dimethylformamide] + CCOc1ccccc1, the speed of sound in data set [3] (298 K) is reported as 1457 ± 2 m/s; in data set [3] (303 K) it was 1437 ± 2 m/s; in data set [3] (308 K) it was 1420 ± 2 m/s. The results for the mass density in data set [3] (298 K), in data set [3] (303 K) and in data set [3] (308 K) were 944 ± 2 kg/m3, 939 ± 2 kg/m3 and 935 ± 2 kg/m3, respectively. In addition, the values for the refractive index in data set [4] (298 K), in data set [4] (303 K) and in data set [4] (308 K) were 1.429 ± 0.002, 1.427 ± 0.002 and 1.425 ± 0.002, respectively.
Take `CCOc1ccccc1` [ethoxybenzene]: the speed of sound in data set [1] (298 K) worked out at 1369 ± 2 m/s; in data set [1] (303 K), 1349 ± 2 m/s; in data set [1] (308 K) it was 1329 ± 2 m/s. In addition, the mass density is on record as 960 ± 2 kg/m3 in data set [1] (298 K), 955 ± 2 kg/m3 in data set [1] (303 K) and 951 ± 2 kg/m3 in data set [1] (308 K). Moreover, the refractive index in data set [2] (298 K) turned out to be 1.505 ± 0.002; in data set [2] (303 K), 1.503 ± 0.002; in data set [2] (308 K), 1.499 ± 0.002.
With `C1CCOC1` [tetrahydrofuran], the speed of sound is on record as 1278 ± 2 m/s in data set [1] (298 K), 1254 ± 2 m/s in data set [1] (303 K) and 1230 ± 2 m/s in data set [1] (308 K). Also, the mass density in data set [1] (298 K) is on record as 882 ± 2 kg/m3; in data set [1] (303 K), 878 ± 2 kg/m3; in data set [1] (308 K), 874 ± 2 kg/m3. In addition, the results for the refractive index in data set [2] (298 K), in data set [2] (303 K) and in data set [2] (308 K) were 1.405 ± 0.002, 1.403 ± 0.002 and 1.4 ± 0.002, respectively.
Regarding `C1CCOC1` [tetrahydrofuran] + CCOc1ccccc1, the speed of sound in data set [3] (298 K) is on record as 1278 ± 2 m/s; in data set [3] (303 K) it was 1254 ± 2 m/s; in data set [3] (308 K), 1230 ± 2 m/s. For the same compound, the mass density in data set [3] (298 K) was 882 ± 2 kg/m3; in data set [3] (303 K), 878 ± 2 kg/m3; in data set [3] (308 K), 874 ± 2 kg/m3. Also, the refractive index is recorded as 1.405 ± 0.002 in data set [4] (298 K), 1.403 ± 0.002 in data set [4] (303 K) and 1.4 ± 0.002 in data set [4] (308 K).

One may read the speed of sound as how fast a sound wave travels through the sample. For orientation: mass density means mass per unit of volume. Usually refractive index stands for a measure of how strongly the sample bends light.

Source of the values: the NIST ThermoML archive (doi:10.1016/j.jct.2016.07.032).
